Patent publication US7084133B2, “Dicarba-closo-dodecaborane derivatives” (priority 2001, dated 2006)

System: promyelocytic leukemia strain HL-60
Assay: Test for induction of cell differentiation in HL-60 cells (NBT reducing ability), compound alone or with coexistence of VD3
Format: cell-based
Conditions: compound alone
Experimental: Cell differentiation-inducing action was examined for each of the compounds obtained in the examples alone or with the coexistence of 1×10^−8 M1α,25-dihydroxyvitamin D3 (VD3). According to the method described in Japanese Patent Unexamined Publication (Kokai) No. 61–76440, cell differentiation of promyelocytic leukemia strain HL-60 into granulocytic series was determined based on morphological change and measurement of ability to reduce nitroblue tetrazolium (NBT). The values in the table indicate ratios (%) of differentiated cells calculated from the NBT reducing ability, and the row represented by “VD3” indicates the results obtained by using vitamin D3.

Q: `C=C1/C(=C\C=C2/CCC[C@]3(C)[C@@H]([C@H](C)CCCC(C)(C)O)CC[C@@H]23)C[C@@H](O)C[C@@H]1O` [VD3, 1α,25-dihydroxyvitamin D3] was tested. Which “ratios (%) of differentiated cells calculated from the NBT reducing ability” value (Log Concentration (M) −7) did it give?
A: 75%

Q: And the “ratios (%) of differentiated cells calculated from the NBT reducing ability” value (Log Concentration (M) −8)?
A: 41%

Q: And the “ratios (%) of differentiated cells calculated from the NBT reducing ability” value (Log Concentration (M) −9)?
A: 7%
